Experimental data taken from ChEMBL document CHEMBL5579846, “Synthesis of thiazolidine-2,4-dione tethered 1,2,3-triazoles as α-amylase inhibitors: In vitro approach coupled with QSAR, molecular docking, molecular dynamics and ADMET studies” (Eur J Med Chem, 2024).

Biological target: T1, Alpha amylase (Homo sapiens, UniProt P0DUB6)
T1 sequence (P0DUB6 whole entry): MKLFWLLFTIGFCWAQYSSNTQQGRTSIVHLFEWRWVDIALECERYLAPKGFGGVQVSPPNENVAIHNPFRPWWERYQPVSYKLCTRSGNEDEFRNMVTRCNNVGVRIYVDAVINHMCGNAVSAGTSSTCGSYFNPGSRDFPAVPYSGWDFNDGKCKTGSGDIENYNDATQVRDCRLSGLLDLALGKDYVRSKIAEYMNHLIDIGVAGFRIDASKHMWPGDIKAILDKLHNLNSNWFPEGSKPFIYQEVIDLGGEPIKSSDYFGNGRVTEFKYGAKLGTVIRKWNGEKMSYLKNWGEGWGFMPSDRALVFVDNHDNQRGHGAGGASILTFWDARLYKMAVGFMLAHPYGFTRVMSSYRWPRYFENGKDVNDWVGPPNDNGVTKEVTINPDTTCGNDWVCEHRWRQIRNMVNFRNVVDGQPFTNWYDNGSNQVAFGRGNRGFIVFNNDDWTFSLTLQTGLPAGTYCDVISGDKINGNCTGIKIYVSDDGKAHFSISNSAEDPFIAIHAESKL
Test: Inhibition of alpha-amylase (unknown origin) using 1% starch as substrate preincubated for 30 mins followed by substrate addition and measured after 30 mins by colorimetric analysis
Assay type: protein assay

| IC50 [µM] | pIC50 | SMILES |
| --- | --- | --- |
| 69 | 7.164 | COc1cccc(-n2cc(CN3C(=O)S/C(=C\N(C)C)C3=O)nn2)c1 |
| 60 | 7.222 | CN(C)/C=C1\SC(=O)N(Cc2cn(-c3cccc(Cl)c3Cl)nn2)C1=O |
| 139 | 6.859 | C#CCN1C(=O)S/C(=C\N(C)C)C1=O |
| 66 | 7.182 | Cc1cc(C)cc(-n2cc(CN3C(=O)S/C(=C\N(C)C)C3=O)nn2)c1 |
| 55 | 7.258 | CN(C)/C=C1\SC(=O)N(Cc2cn(-c3cccc(C(F)(F)F)c3)nn2)C1=O |
| 49 | 7.307 | CCc1ccccc1-n1cc(CN2C(=O)S/C(=C\N(C)C)C2=O)nn1 |
| 59 | 7.227 | CN(C)/C=C1\SC(=O)N(Cc2cn(-c3ccc([N+](=O)[O-])cc3)nn2)C1=O |
| 93 | 7.032 | Cc1ccc(C)c(-n2cc(CN3C(=O)S/C(=C\N(C)C)C3=O)nn2)c1 |
| 54 | 7.268 | CC(C)c1ccc(-n2cc(CN3C(=O)S/C(=C\N(C)C)C3=O)nn2)cc1 |
| 58 | 7.24 | CCCCn1cc(CN2C(=O)S/C(=C\N(C)C)C2=O)nn1 |
| 78 | 7.108 | CN(C)/C=C1\SC(=O)N(Cc2cn(CC(=O)c3ccc(Br)cc3)nn2)C1=O |
| 99 | 7.003 | CN(C)/C=C1\SC(=O)N(Cc2cn(-c3ccccc3)nn2)C1=O |
| 80 | 7.095 | CN(C)/C=C1\SC(=O)N(Cc2cn(Cc3ccccc3)nn2)C1=O |
| 61 | 7.215 | Cc1cccc(-n2cc(CN3C(=O)S/C(=C\N(C)C)C3=O)nn2)c1 |
| 98 | 7.01 | CN(C)/C=C1\SC(=O)N(Cc2cn(-c3ccc(Cl)cc3)nn2)C1=O |
| 91 | 7.039 | CN(C)/C=C1\SC(=O)N(Cc2cn(-c3ccccc3Cl)nn2)C1=O |
| 66 | 7.182 | CN(C)/C=C1\SC(=O)N(Cc2cn(-c3cccc(Cl)c3)nn2)C1=O |
| 45 | 7.349 | CN(C)/C=C1\SC(=O)N(Cc2cn(Cc3ccc(Cl)cc3Cl)nn2)C1=O |
| 93 | 7.031 | CN(C)/C=C1\SC(=O)N(Cc2cn(-c3ccc(F)cc3)nn2)C1=O |
| 53 | 7.276 | COc1ccc(-n2cc(CN3C(=O)S/C(=C\N(C)C)C3=O)nn2)cc1 |
| 65 | 7.185 | COc1ccccc1-n1cc(CN2C(=O)S/C(=C\N(C)C)C2=O)nn1 |
| 48 | 7.318 | Cc1ccc(-n2cc(CN3C(=O)S/C(=C\N(C)C)C3=O)nn2)c(C)c1 |
| 84 | 7.077 | CN(C)/C=C1\SC(=O)N(Cc2cn(-c3ccc(C(F)(F)F)cc3)nn2)C1=O |
| 68 | 7.169 | CCc1ccc(-n2cc(CN3C(=O)S/C(=C\N(C)C)C3=O)nn2)cc1 |
| 40 | 7.399 | CN(C)/C=C1\SC(=O)N(Cc2cn(-c3ccnc4cc(Cl)ccc34)nn2)C1=O |
| 48 | 7.319 | CN(C)/C=C1\SC(=O)N(Cc2cn(-c3ccccc3C(F)(F)F)nn2)C1=O |
